Results taken from PubChem BioAssay AID330 (DTP/NCI, 2004).
Where “and” joins values, the source holds several entries; their conditions need not be identical. Identical values can stand only once. Toxic doses and inconclusive results are not listed.

Test system: P388 leukemia ip, CD2F1 mice, survival T/C
Assay: NCI In Vivo Anticancer Drug Screen. Data for tumor model P388 Leukemia (intraperitoneal) in CD2F1 (CDF1) mice
Conditions: endpoint: median survival time, higher = longer survival
Method in brief: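 Mice carrying the transplanted tumor received test compound or vehicle. Survival was recorded in each group, and the value is the treated-group measurement divided by that of the vehicle-treated control group.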

[1] = dose: 25.0 mg/kg/injection, schedule: Q01DX005 (ip), vehicle: Klucel (hydroxypropylcellulose) (HPC)
[2] = dose: 50.0 mg/kg/injection, schedule: Q01DX009 (ip), vehicle: saline
[3] = dose: 100.0 mg/kg/injection, schedule: Q01DX009 (ip), vehicle: saline
[4] = dose: 200.0 mg/kg/injection, schedule: Q01DX009 (ip), vehicle: saline
[5] = dose: 25.0 mg/kg/injection, schedule: Q01DX009 (ip), vehicle: saline with Tween-80
[6] = dose: 50.0 mg/kg/injection, schedule: Q01DX009 (ip), vehicle: saline with Tween-80
[7] = dose: 100.0 mg/kg/injection, schedule: Q01DX009 (ip), vehicle: saline with Tween-80
[8] = dose: 50.0 mg/kg/injection, schedule: Q01DX009 (ip), vehicle: Klucel (hydroxypropylcellulose) (HPC)
[9] = dose: 100.0 mg/kg/injection, schedule: Q01DX009 (ip), vehicle: Klucel (hydroxypropylcellulose) (HPC)
[10] = dose: 200.0 mg/kg/injection, schedule: Q01DX009 (ip), vehicle: Klucel (hydroxypropylcellulose) (HPC)
[11] = dose: 50.0 mg/kg/injection, schedule: Q01DX005 (ip), vehicle: saline with Tween-80
[12] = dose: 200.0 mg/kg/injection, schedule: Q01DX005 (ip), vehicle: saline with Tween-80
[13] = dose: 100.0 mg/kg/injection, schedule: Q01DX005 (ip), vehicle: saline with Tween-80
[14] = dose: 60.0 mg/kg/injection, schedule: Q01DX005 (ip), vehicle: saline with Tween-80
[15] = dose: 120.0 mg/kg/injection, schedule: Q01DX005 (ip), vehicle: saline with Tween-80
[16] = dose: 50.0 mg/kg/injection, schedule: Q01DX005 (ip), vehicle: Klucel (hydroxypropylcellulose) (HPC)
[17] = dose: 100.0 mg/kg/injection, schedule: Q01DX005 (ip), vehicle: Klucel (hydroxypropylcellulose) (HPC)
[18] = dose: 200.0 mg/kg/injection, schedule: Q01DX005 (ip), vehicle: Klucel (hydroxypropylcellulose) (HPC)
[19] = dose: 200.0 mg/kg/injection, schedule: Q01DX009 (ip), vehicle: saline with Tween-80

Structure (SMILES): CC(C)(C)c1cc(C#C[Si](C)(C)C)cc(C(C)(C)C)c1
- T/C (dose: 6.25 mg/kg/injection, schedule: Q01DX005 (ip), vehicle: Klucel (hydroxypropylcellulose) (HPC)): 98 % of control
- T/C (dose: 12.5 mg/kg/injection, schedule: Q01DX005 (ip), vehicle: Klucel (hydroxypropylcellulose) (HPC)): 101 % of control
- T/C [1]: 92 % of control

Structure (SMILES): C=C(C)C12CC(C)C34OC(/C=C/C=C/CCCCC)(OC1C3C1OC1(CO)C(O)C1(O)C(=O)C(C)=CC14)O2 (centres undefined)
- T/C (dose: 0.03 mg/kg/injection, schedule: Q01DX009 (ip), vehicle: distilled water + alcohol): 96 % of control
- T/C (dose: 0.06 mg/kg/injection, schedule: Q01DX009 (ip), vehicle: distilled water + alcohol): 102 % of control
- T/C (dose: 0.12 mg/kg/injection, schedule: Q01DX009 (ip), vehicle: distilled water + alcohol): 98 % of control
- T/C (dose: 0.25 mg/kg/injection, schedule: Q01DX009 (ip), vehicle: distilled water + alcohol): 106 % of control
- T/C (dose: 0.5 mg/kg/injection, schedule: Q01DX009 (ip), vehicle: distilled water + alcohol): 98 % of control
- T/C (dose: 1.0 mg/kg/injection, schedule: Q01DX009 (ip), vehicle: distilled water + alcohol): 108 % of control

Structure (SMILES): CC1CN1C(=O)Nc1cccc(Cl)c1 (centres undefined)
- T/C [2]: 100 % of control
- T/C [3]: 102 % of control

Structure (SMILES): NC(C(=O)O)C(C(F)(F)F)C(F)(F)F (centres undefined)
- T/C [2]: 101 % of control
- T/C [3]: 102 % of control
- T/C [4]: 114 % of control

Structure (SMILES): O=C1CCCC2C3CC(CN12)C1CCCCN1C3 (centres undefined)
- T/C [5]: 100 % of control
- T/C [6]: 120 % of control
- T/C [7]: 105 % of control

Structure (SMILES): COCC1(C)CCCC2(C)C3=C(CCC(OC(C)=O)C3)CCC12 (centres undefined)
- T/C (dose: 100.0 mg/kg/injection, schedule: Q04DX003 (ip), vehicle: suspension in saline): 100 % of control
- T/C (dose: 200.0 mg/kg/injection, schedule: Q04DX003 (ip), vehicle: suspension in saline): 102 % of control
- T/C (dose: 400.0 mg/kg/injection, schedule: Q04DX003 (ip), vehicle: suspension in saline): 102 % of control

Structure (SMILES): Cc1ccc2c(c1)C(=O)C(CN1CCOCC1)CCO2 (centres undefined)
- T/C (dose: 100.0 mg/kg/injection, schedule: Q04DX003 (ip), vehicle: saline): 100 % of control
- T/C (dose: 200.0 mg/kg/injection, schedule: Q04DX003 (ip), vehicle: saline): 102 % of control
- T/C (dose: 400.0 mg/kg/injection, schedule: Q04DX003 (ip), vehicle: saline): 96 % of control

Structure (SMILES): COc1cccc(CN2CCCNCC2)c1
- T/C (dose: 6.25 mg/kg/injection, schedule: Q01DX009 (ip), vehicle: water): 93 % of control
- T/C (dose: 12.5 mg/kg/injection, schedule: Q01DX009 (ip), vehicle: water): 93 % of control
- T/C (dose: 25.0 mg/kg/injection, schedule: Q01DX009 (ip), vehicle: water): 97 % of control
- T/C (dose: 50.0 mg/kg/injection, schedule: Q01DX009 (ip), vehicle: water): 101 % of control

Structure (SMILES): CCOC(=O)CC(C(=O)OCC)C(=O)OCC
- T/C (dose: 25.0 mg/kg/injection, schedule: Q01DX009 (ip), vehicle: saline): 97 % of control
- T/C [2]: 100 % of control
- T/C [3]: 103 % of control
- T/C [4]: 106 % of control

Structure (SMILES): O=c1oc2c(Br)cccc2cc1-c1ccc(Br)c2ccccc12
- T/C [8]: 101 % of control
- T/C [9]: 97 % of control
- T/C [10]: 93 % of control

Structure (SMILES): O=S(=O)(CBr)OCCCl
- T/C [11]: 120 % of control
- T/C (dose: 150.0 mg/kg/injection, schedule: Q01DX005 (ip), vehicle: saline with Tween-80): 159 % of control
- T/C [12]: 200 % of control

Structure (SMILES): CC1=NC(C)(Cc2ccccc2)SC1c1ccccc1 (centres undefined)
- T/C [11]: 110 % of control
- T/C (dose: 50.0 mg/kg/injection, schedule: Q01DX005 (ip), vehicle: saline): 100 % of control
- T/C [13]: 96 % of control
- T/C (dose: 100.0 mg/kg/injection, schedule: Q01DX005 (ip), vehicle: saline): 106 % of control
- T/C (dose: 200.0 mg/kg/injection, schedule: Q01DX005 (ip), vehicle: saline): 101 % of control

Structure (SMILES): CCCCn1c2nc(=O)[nH]c(=O)c-2[n+]([O-])c2ccccc21
- T/C (dose: 25.0 mg/kg/injection, schedule: Q01DX001 (ip), vehicle: saline with Tween-80): 102 % of control
- T/C (dose: 50.0 mg/kg/injection, schedule: Q01DX001 (ip), vehicle: saline with Tween-80): 102 % of control

Structure (SMILES): CC(=O)OCC1C(=O)OCC1C(=O)N1Cc2cc3ccccc3nc2C1 (centres undefined)
- T/C (dose: 6.25 mg/kg/injection, schedule: Q01DX009 (ip), vehicle: saline with Tween-80): 100 % of control
- T/C (dose: 8.0 mg/kg/injection, schedule: Q01DX009 (ip), vehicle: saline with Tween-80): 104 % of control and 93 % of control and 97 % of control
- T/C (dose: 12.5 mg/kg/injection, schedule: Q01DX009 (ip), vehicle: saline with Tween-80): 113 % of control
- T/C (dose: 16.0 mg/kg/injection, schedule: Q01DX009 (ip), vehicle: saline with Tween-80): 105 % of control and 116 % of control and 98 % of control
- T/C [5]: 105 % of control
- T/C (dose: 32.0 mg/kg/injection, schedule: Q01DX009 (ip), vehicle: saline with Tween-80): 113 % of control and 116 % of control and 97 % of control
- T/C [6]: 105 % of control
- T/C (dose: 64.0 mg/kg/injection, schedule: Q01DX009 (ip), vehicle: saline with Tween-80): 99 % of control and 105 % of control
- T/C (dose: 128.0 mg/kg/injection, schedule: Q01DX009 (ip), vehicle: saline with Tween-80): 100 % of control and 106 % of control and 108 % of control

Structure (SMILES): COC(=O)N1C=Cc2ccccc2C1(C#N)C(=S)SC (centres undefined)
- T/C [11]: 102 % of control
- T/C [13]: 93 % of control
- T/C [12]: 91 % of control

Structure (SMILES): C/C(CCCC(C)(C)C(=O)O)=N\NC(N)=O
- T/C [14]: 100 % of control
- T/C [15]: 94 % of control
- T/C (dose: 240.0 mg/kg/injection, schedule: Q01DX005 (ip), vehicle: saline with Tween-80): 97 % of control

Structure (SMILES): CCOC(=O)/C(=C(\C)N)n1[nH]c(=O)n(-c2ccccc2)c1=O
- T/C [1]: 98 % of control
- T/C [16]: 100 % of control and 103 % of control
- T/C [17]: 101 % of control and 96 % of control
- T/C [18]: 98 % of control and 103 % of control

Structure (SMILES): CCn1c(=O)[nH]c(=O)c2conc21
- T/C [5]: 95 % of control
- T/C [6]: 104 % of control
- T/C [7]: 96 % of control

Structure (SMILES): O=Cc1ccc(NCCCN2CCN(CCCNc3ccc(C=O)c4sc5ccccc5c(=O)c34)CC2)c2c(=O)c3ccccc3sc12
- T/C (dose: 1.56 mg/kg/injection, schedule: Q01DX005 (ip), vehicle: saline with Tween-80): 107 % of control
- T/C (dose: 3.13 mg/kg/injection, schedule: Q01DX005 (ip), vehicle: saline with Tween-80): 101 % of control
- T/C (dose: 6.25 mg/kg/injection, schedule: Q01DX005 (ip), vehicle: saline with Tween-80): 95 % of control
- T/C (dose: 12.5 mg/kg/injection, schedule: Q01DX005 (ip), vehicle: saline with Tween-80): 99 % of control
- T/C [11]: 88 % of control

Structure (SMILES): C=CCN=C(N)S[As]1c2ccccc2Oc2ccccc21
- T/C [2]: 100 % of control
- T/C [3]: 98 % of control
- T/C [4]: 102 % of control

Structure (SMILES): Cc1cccc(/C(=C/c2ccc([N+](=O)[O-])cc2)C(=O)Nc2ccc(S(=O)(=O)F)cc2)c1
- T/C [14]: 93 % of control
- T/C [15]: 98 % of control

Structure (SMILES): N#CCCSc1nnc(N)s1
- T/C [8]: 108 % of control
- T/C [9]: 103 % of control
- T/C [10]: 104 % of control
- T/C (dose: 400.0 mg/kg/injection, schedule: Q01DX009 (ip), vehicle: Klucel (hydroxypropylcellulose) (HPC)): 100 % of control

Structure (SMILES): C(=N/NC1=NCCN1)/c1ccnc2ccccc12
- T/C (dose: 15.0 mg/kg/injection, schedule: Q01DX005 (ip), vehicle: saline): 100 % of control
- T/C (dose: 30.0 mg/kg/injection, schedule: Q01DX005 (ip), vehicle: saline): 98 % of control
- T/C (dose: 60.0 mg/kg/injection, schedule: Q01DX005 (ip), vehicle: saline): 101 % of control and 92 % of control

Structure (SMILES): O=C(CCl)NCc1ccc([N+](=O)[O-])cc1
- T/C [5]: 108 % of control
- T/C [6]: 112 % of control
- T/C [7]: 108 % of control
- T/C [19]: 103 % of control

Structure (SMILES): COc1ccc(-c2cc(-c3ccc(OC)cc3OC)[n+](C)c(-c3ccc(OC)cc3OC)c2)cc1
- T/C (dose: 0.78 mg/kg/injection, schedule: Q01DX009 (ip), vehicle: saline with Tween-80): 124 % of control
- T/C (dose: 1.56 mg/kg/injection, schedule: Q01DX009 (ip), vehicle: saline with Tween-80): 124 % of control

Structure (SMILES): CCOC(=O)C(/C=N\c1[nH]ncc1C#N)=C(/C(=O)OCC)c1ccc(O)cc1
- T/C [16]: 110 % of control
- T/C [17]: 105 % of control
- T/C [18]: 105 % of control

Structure (SMILES): Oc1c(Cl)cc(Cl)cc1/C=N/c1nc(-c2ccc(Cl)cc2)cs1
- T/C [7]: 88 % of control
- T/C [19]: 104 % of control
